The source made the active and inactive calls. Rule as the data show it: actives have a measured IC50 and inactives only a lower limit.
target: Envelope glycoprotein gp160 (Human immunodeficiency virus 1, UniProt Q6QLK5); assay: inhibitors of HIV fusion peptide binding, primary screen, biochemical, uHTS, fluorescence dequenching (AID 1986)
Sequence (Q6QLK5 whole entry, the tested form may be a part): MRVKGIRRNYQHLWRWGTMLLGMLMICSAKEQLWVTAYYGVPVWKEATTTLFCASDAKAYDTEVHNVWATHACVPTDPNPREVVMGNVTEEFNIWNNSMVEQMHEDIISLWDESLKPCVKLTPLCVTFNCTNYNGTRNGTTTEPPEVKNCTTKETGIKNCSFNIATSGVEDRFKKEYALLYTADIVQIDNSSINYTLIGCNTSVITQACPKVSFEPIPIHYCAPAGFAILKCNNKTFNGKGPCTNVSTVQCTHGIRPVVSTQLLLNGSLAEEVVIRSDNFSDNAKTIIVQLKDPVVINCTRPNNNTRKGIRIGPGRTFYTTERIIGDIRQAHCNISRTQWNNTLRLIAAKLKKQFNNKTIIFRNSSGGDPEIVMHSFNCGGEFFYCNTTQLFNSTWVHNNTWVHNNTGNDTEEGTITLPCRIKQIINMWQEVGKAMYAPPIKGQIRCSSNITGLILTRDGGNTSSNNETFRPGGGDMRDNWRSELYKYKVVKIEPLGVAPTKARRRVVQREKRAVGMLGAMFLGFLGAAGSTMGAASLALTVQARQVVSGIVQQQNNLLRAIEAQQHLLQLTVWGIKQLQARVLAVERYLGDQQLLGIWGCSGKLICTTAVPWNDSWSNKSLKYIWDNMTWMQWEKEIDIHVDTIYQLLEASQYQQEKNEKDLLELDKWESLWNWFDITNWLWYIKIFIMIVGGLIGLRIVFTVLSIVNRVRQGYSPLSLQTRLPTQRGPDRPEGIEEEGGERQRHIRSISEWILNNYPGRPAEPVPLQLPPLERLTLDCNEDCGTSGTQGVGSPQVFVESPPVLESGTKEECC

SMILES	IC50
CC(C)(C)OC(=O)N1CCC(c2cc(O)n3ncc(C(=O)Nc4ccc(F)c(Cl)c4)c3n2)CC1	82.2 µM (active)
O=C1N/C(=N\c2ccccc2Cl)S/C1=C\c1cccc([N+](=O)[O-])c1O	22.1 µM (active)
Nc1c(S(=O)(=O)O)cc(NC(=O)c2ccccc2)c2c1C(=O)c1ccccc1C2=O	12.1 µM (active)
CCOc1cc(Br)cc(C(c2c(C(=O)O)[nH]c3ccccc23)c2c(C(=O)O)[nH]c3ccccc23)c1O	5.92 µM (active)
Cc1ccc(-c2nn(-c3ccccc3)cc2/C=C2\SC(=S)N(CC(=O)O)C2=O)cc1	12.3 µM (active)
